Test results from patent publication US20060099586A1, “Eef1a2 for use in the prognosis, diagnosis, and treatment of cancer” (priority 2002, published 2006).

Columns and labels:
[1] = tested on: NIH 3T3 cells ectopically expressing EEF1A2; test: Drug-induced apoptosis in NIH 3T3 cells ectopically expressing EEF1A2; type: cell-based, mouse
Text: Patients with tumor samples that are positive for EEF1A2 are expected to survive for a shorter period of time as compared to patients with tumor sample negative for EEF1A2. Prognostic information relating to EEF1A2-gene amplification and/or EEF1A2 protein expression can be used to enhance clinical decision-making and to select appropriate treatment regimes. NIH 3T3 cells ectopically expressing EEF1A2 are resistant to the apoptosis-induced by cisplatin and staurosporine. Further, mice lacking EEF1A2 show increased lymphoid apoptosis. Accordingly, it is believed that EEF1A2 modulates the sensitivity of cancer cells to selected treatments.

EEF1A1 mRNA = EEF1A1 mRNA levels after antisense oligonucleotide treatment of human Ramos cells; type: cell-based
Text: (§1) Antisense inactivation of EEF1A2 was achieved using two EEF1A2-specific phosphorothioated antisense oligonucleotides. Phosphorothioated DNA oligonucleotides were used as these modified oligonucleotides are non-toxic in humans, nuclease resistant, stable in vivo and in vitro, are readily taken up by cells and activate rapid degradation of the mRNA target (Gewirtz et al. Blood 1998 92:712-736; Agrawal et al. Proc. Natl. Acad. Sci. USA 1990 87:1401-1405). However, as will be understood by those of skill in the art upon reading this disclosure, other modifications well known to those skilled in the art can be used.
(§2) Both antisense oligonucleotides decreased EEF1A2 mRNA levels in human Ramos cells. mRNA levels of EEF1A1 were not decreased by administration of these antisense oligonucleotides. A control sequence, GGTTGCTGTGGGCTTGAGT (SEQ ID NO:4) had no effect on mRNA levels of EEF1A2 or EEF1A1 in the human Ramos cells.

EEF1A2 mRNA = EEF1A2 mRNA levels after antisense oligonucleotide treatment of human Ramos cells; type: cell-based
Text: as §1, §2

Row | Molecule | apoptosis induced by the drug [1] | effect on EEF1A1 mRNA levels (EEF1A1 mRNA) | effect on EEF1A2 mRNA levels (EEF1A2 mRNA)
1 | N.N.[Cl][Pt][Cl] [cisplatin] | resistant | – | –
2 | CN[C@@H]1C[C@H]2O[C@@](C)([C@@H]1OC)n1c3ccccc3c3c4c(c5c6ccccc6n2c5c31)C(=O)NC4 [staurosporine] | resistant | – | –
3 | SEQ ID NO:4: control sequence GGTTGCTGTGGGCTTGAGT (listed as DNA, chemistry not given here) | – | no effect | no effect
